Results from patent US11767310B2, “Nicotinamide RIPK1 inhibitors” (AbbVie Inc., priority 2021, dated 2023).
Where two headings read alike, the source gives them in different places.

Assays:
Test in all cases: Kinase binding screen
Settings in all cases: read-out: Percent Control at 100 nM Compound Concentration
[1] = target: ABL1(F317I)-phosphorylated (Homo sapiens (Human), UniProt P00519, F317I)
[2] = target: ABL1(H396P)-phosphorylated (Homo sapiens (Human), UniProt P00519, H396P)
[3] = target: ABL1(Y253F)-pho sphorylated (Homo sapiens (Human), UniProt P00519, Y253F)
ACVRL1 = ACVRL1 (Homo sapiens (Human), UniProt P37023)
AKT1 = AKT1 (Homo sapiens (Human), UniProt P31749)
CAMKK1 = CAMKK1 (Homo sapiens (Human), UniProt Q8N5S9)
CDKL3 = CDKL3 (Homo sapiens (Human), UniProt Q8IVW4)
DCAMKL2 = DCAMKL2 (Homo sapiens (Human), UniProt Q8N568)
IGFIR = IGFIR (Homo sapiens (Human), UniProt P08069)
[4] = target: JAK3(JH1domain-catalytic) (Homo sapiens (Human), UniProt P52333)
LRRK2 = LRRK2 (Homo sapiens (Human), UniProt Q5S007)
MEK1 = MEK1 (Homo sapiens (Human), UniProt Q02750)
MEK6 = MEK6 (Homo sapiens (Human), UniProt P52564)
MLK1 = MLK1 (Homo sapiens (Human), UniProt P80192)
MYLK2 = MYLK2 (Homo sapiens (Human), UniProt Q9H1R3)
PCTK3 = PCTK3 (Homo sapiens (Human), UniProt Q07002)
PDGFRA = PDGFRA (Homo sapiens (Human), UniProt P16234)
PHKG2 = PHKG2 (Homo sapiens (Human), UniProt P15735)
PIK3CA(H1047Y) = PIK3CA(H1047Y) (Homo sapiens (Human), UniProt P42336, H1047Y)
PRKD1 = PRKD1 (Homo sapiens (Human), UniProt Q15139)
QSK = QSK (Homo sapiens (Human), UniProt Q9Y2K2)
RET(V804M) = RET(V804M) (Homo sapiens (Human), UniProt P07949, V804M)
SIK = SIK (Homo sapiens (Human), UniProt P57059)
TESK1 = TESK1 (Homo sapiens (Human), UniProt Q15569)
TIE2 = TIE2 (Homo sapiens (Human), UniProt Q02763)
TLK2 = TLK2 (Homo sapiens (Human), UniProt Q86UE8)
WNK1 = WNK1 (Homo sapiens (Human), UniProt Q9H4A3)
WNK4 = WNK4 (Homo sapiens (Human), UniProt Q96J92)

Chain of PDGFRA (P16234 24-1089): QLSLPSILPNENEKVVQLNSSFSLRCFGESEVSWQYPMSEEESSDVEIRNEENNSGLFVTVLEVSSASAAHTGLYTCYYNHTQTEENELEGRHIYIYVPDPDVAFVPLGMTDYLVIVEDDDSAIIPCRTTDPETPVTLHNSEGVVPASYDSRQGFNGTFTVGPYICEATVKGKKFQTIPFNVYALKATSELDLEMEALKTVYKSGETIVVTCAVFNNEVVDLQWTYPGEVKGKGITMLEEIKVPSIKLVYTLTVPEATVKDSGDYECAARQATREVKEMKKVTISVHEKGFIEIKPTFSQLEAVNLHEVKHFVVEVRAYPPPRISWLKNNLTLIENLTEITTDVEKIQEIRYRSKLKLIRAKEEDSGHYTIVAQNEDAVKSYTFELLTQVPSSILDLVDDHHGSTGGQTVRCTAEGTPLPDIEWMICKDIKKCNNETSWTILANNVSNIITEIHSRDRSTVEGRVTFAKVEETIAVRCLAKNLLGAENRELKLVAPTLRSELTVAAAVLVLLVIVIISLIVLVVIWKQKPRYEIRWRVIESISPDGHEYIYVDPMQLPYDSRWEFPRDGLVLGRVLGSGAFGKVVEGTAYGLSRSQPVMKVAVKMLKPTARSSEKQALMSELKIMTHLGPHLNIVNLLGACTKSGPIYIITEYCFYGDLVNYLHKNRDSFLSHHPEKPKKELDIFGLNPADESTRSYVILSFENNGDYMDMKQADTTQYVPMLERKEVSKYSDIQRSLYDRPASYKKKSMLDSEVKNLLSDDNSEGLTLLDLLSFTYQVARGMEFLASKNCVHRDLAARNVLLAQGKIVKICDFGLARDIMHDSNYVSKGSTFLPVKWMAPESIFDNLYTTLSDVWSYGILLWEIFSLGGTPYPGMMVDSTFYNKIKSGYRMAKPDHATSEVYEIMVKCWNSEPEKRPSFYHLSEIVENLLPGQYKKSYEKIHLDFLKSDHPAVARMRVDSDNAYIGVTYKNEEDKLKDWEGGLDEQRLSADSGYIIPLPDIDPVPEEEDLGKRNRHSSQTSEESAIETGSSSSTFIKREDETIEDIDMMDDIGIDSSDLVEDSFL
Chain of AKT1 (P31749 whole entry): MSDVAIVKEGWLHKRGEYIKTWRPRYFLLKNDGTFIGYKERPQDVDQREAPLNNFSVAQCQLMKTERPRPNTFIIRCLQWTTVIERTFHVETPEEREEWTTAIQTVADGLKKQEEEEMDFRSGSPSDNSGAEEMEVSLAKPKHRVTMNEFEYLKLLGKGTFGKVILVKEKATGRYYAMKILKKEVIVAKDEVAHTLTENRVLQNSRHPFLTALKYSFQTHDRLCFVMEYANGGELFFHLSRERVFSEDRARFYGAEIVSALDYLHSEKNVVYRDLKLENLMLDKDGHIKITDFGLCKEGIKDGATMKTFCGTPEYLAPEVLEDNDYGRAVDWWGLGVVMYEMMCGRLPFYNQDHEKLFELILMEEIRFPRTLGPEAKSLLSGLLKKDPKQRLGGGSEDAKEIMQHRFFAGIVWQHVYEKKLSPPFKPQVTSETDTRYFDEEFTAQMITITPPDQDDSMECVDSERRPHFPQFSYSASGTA
Chain of WNK1 (Q9H4A3 whole entry): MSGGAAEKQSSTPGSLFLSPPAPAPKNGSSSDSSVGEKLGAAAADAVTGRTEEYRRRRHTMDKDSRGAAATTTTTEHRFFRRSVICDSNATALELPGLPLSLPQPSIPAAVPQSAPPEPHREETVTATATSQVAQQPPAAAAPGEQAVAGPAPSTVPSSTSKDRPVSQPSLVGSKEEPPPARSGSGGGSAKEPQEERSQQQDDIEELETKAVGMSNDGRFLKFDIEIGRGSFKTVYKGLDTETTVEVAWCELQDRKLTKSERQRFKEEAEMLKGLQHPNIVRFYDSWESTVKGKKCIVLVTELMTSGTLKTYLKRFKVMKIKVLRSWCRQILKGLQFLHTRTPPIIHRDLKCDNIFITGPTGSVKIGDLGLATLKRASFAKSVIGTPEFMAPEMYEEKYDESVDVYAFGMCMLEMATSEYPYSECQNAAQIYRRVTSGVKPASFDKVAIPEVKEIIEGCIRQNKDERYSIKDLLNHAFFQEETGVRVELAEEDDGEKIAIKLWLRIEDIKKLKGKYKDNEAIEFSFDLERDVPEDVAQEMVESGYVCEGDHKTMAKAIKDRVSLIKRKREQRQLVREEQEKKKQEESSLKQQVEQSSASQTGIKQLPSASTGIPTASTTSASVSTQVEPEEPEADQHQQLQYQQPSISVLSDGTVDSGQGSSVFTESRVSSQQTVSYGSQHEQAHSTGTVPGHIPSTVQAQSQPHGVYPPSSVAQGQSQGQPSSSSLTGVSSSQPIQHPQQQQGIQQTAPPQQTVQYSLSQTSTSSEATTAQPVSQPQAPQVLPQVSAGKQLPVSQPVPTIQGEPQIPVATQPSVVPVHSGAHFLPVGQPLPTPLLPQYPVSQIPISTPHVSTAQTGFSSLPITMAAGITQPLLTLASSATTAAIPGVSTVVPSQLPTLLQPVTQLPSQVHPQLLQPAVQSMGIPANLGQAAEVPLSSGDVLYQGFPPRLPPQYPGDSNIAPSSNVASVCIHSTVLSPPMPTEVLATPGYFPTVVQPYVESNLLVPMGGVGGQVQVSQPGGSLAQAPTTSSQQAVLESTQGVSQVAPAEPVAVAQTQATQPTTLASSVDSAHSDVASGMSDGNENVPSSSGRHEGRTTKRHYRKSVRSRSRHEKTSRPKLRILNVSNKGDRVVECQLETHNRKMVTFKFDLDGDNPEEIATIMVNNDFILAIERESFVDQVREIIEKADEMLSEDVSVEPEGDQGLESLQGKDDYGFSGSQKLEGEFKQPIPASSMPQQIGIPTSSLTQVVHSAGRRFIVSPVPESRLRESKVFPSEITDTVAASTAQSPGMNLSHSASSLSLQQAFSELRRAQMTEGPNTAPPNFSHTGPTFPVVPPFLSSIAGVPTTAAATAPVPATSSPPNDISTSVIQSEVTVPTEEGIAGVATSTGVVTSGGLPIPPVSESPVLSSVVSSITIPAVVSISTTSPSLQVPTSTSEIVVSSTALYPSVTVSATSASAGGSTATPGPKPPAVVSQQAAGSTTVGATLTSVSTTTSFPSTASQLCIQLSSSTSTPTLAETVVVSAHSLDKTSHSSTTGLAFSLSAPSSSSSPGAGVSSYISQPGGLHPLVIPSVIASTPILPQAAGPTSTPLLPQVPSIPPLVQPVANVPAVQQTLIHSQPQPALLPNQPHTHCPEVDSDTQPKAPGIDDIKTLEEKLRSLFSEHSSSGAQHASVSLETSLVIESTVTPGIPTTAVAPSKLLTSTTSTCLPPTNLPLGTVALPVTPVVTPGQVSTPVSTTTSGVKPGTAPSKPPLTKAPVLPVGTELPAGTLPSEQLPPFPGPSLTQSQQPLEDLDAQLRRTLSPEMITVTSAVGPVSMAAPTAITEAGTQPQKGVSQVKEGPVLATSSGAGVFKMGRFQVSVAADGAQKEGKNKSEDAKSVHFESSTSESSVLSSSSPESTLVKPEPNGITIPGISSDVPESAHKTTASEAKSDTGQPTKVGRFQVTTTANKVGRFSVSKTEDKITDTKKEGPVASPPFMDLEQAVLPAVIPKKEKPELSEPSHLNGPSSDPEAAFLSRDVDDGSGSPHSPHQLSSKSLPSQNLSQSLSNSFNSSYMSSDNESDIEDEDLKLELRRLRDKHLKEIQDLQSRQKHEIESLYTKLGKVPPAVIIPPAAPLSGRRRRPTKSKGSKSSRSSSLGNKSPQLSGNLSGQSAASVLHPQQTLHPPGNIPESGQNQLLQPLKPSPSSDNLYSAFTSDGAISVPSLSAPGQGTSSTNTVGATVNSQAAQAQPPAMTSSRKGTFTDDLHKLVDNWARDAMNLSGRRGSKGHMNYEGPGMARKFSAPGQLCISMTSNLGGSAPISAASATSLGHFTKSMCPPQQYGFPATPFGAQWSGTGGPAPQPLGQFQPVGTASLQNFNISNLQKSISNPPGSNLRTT
Chain of MYLK2 (Q9H1R3 whole entry): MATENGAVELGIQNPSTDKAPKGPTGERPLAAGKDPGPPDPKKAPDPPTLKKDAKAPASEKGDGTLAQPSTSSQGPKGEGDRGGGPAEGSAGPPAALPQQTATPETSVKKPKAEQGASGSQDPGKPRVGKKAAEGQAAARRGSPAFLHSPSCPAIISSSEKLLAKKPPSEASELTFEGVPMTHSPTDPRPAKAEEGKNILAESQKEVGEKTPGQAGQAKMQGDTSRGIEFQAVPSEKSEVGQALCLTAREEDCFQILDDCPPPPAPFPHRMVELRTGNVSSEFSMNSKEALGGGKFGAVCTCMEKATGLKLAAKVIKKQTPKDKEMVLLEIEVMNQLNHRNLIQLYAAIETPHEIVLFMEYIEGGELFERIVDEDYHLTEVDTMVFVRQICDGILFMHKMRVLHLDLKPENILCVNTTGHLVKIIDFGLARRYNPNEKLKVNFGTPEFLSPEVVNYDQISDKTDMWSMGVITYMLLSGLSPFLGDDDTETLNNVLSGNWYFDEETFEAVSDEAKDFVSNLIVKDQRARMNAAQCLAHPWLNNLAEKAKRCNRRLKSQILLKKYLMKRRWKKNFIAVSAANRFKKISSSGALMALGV
Chain of CAMKK1 (Q8N5S9 whole entry): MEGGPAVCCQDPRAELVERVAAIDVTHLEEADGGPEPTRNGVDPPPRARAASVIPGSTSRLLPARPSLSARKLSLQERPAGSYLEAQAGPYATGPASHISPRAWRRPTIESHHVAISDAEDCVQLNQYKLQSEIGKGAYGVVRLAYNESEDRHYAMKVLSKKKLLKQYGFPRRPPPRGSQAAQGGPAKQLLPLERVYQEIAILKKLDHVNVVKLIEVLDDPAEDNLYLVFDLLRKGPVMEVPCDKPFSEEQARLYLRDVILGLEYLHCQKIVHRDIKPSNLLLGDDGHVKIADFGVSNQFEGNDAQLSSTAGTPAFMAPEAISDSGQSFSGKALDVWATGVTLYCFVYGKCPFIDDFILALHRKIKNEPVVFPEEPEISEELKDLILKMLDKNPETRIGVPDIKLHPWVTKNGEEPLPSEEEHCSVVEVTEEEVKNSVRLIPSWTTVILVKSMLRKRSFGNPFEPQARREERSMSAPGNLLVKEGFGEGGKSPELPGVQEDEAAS

CN(C[C@H](Cc1ccccc1)OP(=O)(O)O)C(=O)c1cncc(C#Cc2cnn(C(F)F)c2)c1 [Example 19, (S)-1-(5-((1-(difluoromethyl)-1H-pyrazol-4-yl)ethynyl)-N-methylnicotinamido)-3-phenylpropan-2-yl dihydrogen phosphate]
remaining activity at 0.1 µM [1]: 98%
remaining activity at 0.1 µM [2]: 93%
remaining activity at 0.1 µM [3]: 100%
remaining activity at 0.1 µM (ACVRL1): 100%
remaining activity at 0.1 µM (AKT1): 100%
remaining activity at 0.1 µM (CAMKK1): 100%
remaining activity at 0.1 µM (CDKL3): 97%
remaining activity at 0.1 µM (DCAMKL2): 100%
remaining activity at 0.1 µM (IGFIR): 98%
remaining activity at 0.1 µM [4]: 100%
remaining activity at 0.1 µM (LRRK2): 81%
remaining activity at 0.1 µM (MEK1): 99%
remaining activity at 0.1 µM (MEK6): 96%
remaining activity at 0.1 µM (MLK1): 96%
remaining activity at 0.1 µM (MYLK2): 96%
remaining activity at 0.1 µM (PCTK3): 100%
remaining activity at 0.1 µM (PDGFRA): 85%
remaining activity at 0.1 µM (PHKG2): 100%
remaining activity at 0.1 µM (PIK3CA(H1047Y)): 72%
remaining activity at 0.1 µM (PRKD1): 100%
remaining activity at 0.1 µM (QSK): 85%
remaining activity at 0.1 µM (RET(V804M)): 100%
remaining activity at 0.1 µM (SIK): 100%
remaining activity at 0.1 µM (TESK1): 100%
remaining activity at 0.1 µM (TIE2): 88%
remaining activity at 0.1 µM (TLK2): 100%
remaining activity at 0.1 µM (WNK1): 94%
remaining activity at 0.1 µM (WNK4): 81%

CN(C[C@@H](O)Cc1ccccc1)C(=O)c1cncc(C#Cc2cnn(C(F)F)c2)c1 [Example 2, (S)-5-((1-(difluoromethyl)-1H-pyrazol-4-yl)ethynyl)-N-(2-hydroxy-3-phenylpropyl)-N-methylnicotinamide]
remaining activity at 0.1 µM ([1]; ABL1(F317I)-phosphorylated): 100%
remaining activity at 0.1 µM ([2]; ABL1(H396P)-phosphorylated): 94%
remaining activity at 0.1 µM ([3]; ABL1(Y253F)-pho sphorylated): 100%
remaining activity at 0.1 µM (ACVRL1; ACVRL1): 100%
remaining activity at 0.1 µM (AKT1; AKT1): 100%
remaining activity at 0.1 µM (CAMKK1; CAMKK1): 100%
remaining activity at 0.1 µM (CDKL3; CDKL3): 100%
remaining activity at 0.1 µM (DCAMKL2; DCAMKL2): 100%
remaining activity at 0.1 µM (IGFIR; IGFIR): 100%
remaining activity at 0.1 µM ([4]; JAK3(JH1domain-catalytic)): 100%
remaining activity at 0.1 µM (LRRK2; LRRK2): 100%
remaining activity at 0.1 µM (MEK1; MEK1): 98%
remaining activity at 0.1 µM (MEK6; MEK6): 100%
remaining activity at 0.1 µM (MLK1; MLK1): 100%
remaining activity at 0.1 µM (MYLK2; MYLK2): 100%
remaining activity at 0.1 µM (PCTK3; PCTK3): 100%
remaining activity at 0.1 µM (PDGFRA; PDGFRA): 73%
remaining activity at 0.1 µM (PHKG2; PHKG2): 100%
remaining activity at 0.1 µM (PIK3CA(H1047Y); PIK3CA(H1047Y)): 71%
remaining activity at 0.1 µM (PRKD1; PRKD1): 100%
remaining activity at 0.1 µM (QSK; QSK): 88%
remaining activity at 0.1 µM (RET(V804M); RET(V804M)): 100%
remaining activity at 0.1 µM (SIK; SIK): 100%
remaining activity at 0.1 µM (TESK1; TESK1): 100%
remaining activity at 0.1 µM (TIE2; TIE2): 100%
remaining activity at 0.1 µM (TLK2; TLK2): 100%
remaining activity at 0.1 µM (WNK1; WNK1): 93%
remaining activity at 0.1 µM (WNK4; WNK4): 84%
